Experimental data published in ChEMBL document CHEMBL4396913, “Synthesis and biological evaluation of hybrid quinolone-based quaternary ammonium antibacterial agents” (Eur J Med Chem, 2019).

Experiments:
Escherichia coli [1] = assay: Bactericidal activity against Escherichia coli ATCC 8739 cultured in MH medium assessed as reduction in bacterial survival incubated for 48 hrs by microbroth dilution method; type: functional; settings: ATCC 8739, 48 h
Staphylococcus aureus [2] = assay: Bactericidal activity against methicillin resistant Staphylococcus aureus 6347 cultured in MH medium assessed as reduction in bacterial survival incubated for 48 hrs by microbroth dilution method; type: functional; settings: Staphylococcus aureus, 6347, 48 h
[3] = system: Staphylococcus epidermidis; assay: Antibacterial activity against Staphylococcus epidermidis ATCC 14990 cultured in MH medium assessed as reduction in bacterial growth incubated for 48 hrs by microbroth dilution method; type: functional; settings: ATCC 14990, 48 h
Staphylococcus aureus [4] = assay: Antibacterial activity against methicillin resistant Staphylococcus aureus N315 cultured in MH medium assessed as reduction in bacterial growth incubated for 48 hrs by microbroth dilution method; type: functional; settings: N315, 48 h
Staphylococcus aureus [5] = assay: Antibacterial activity against Staphylococcus aureus ATCC 6538 cultured in MH medium assessed as reduction in bacterial growth incubated for 48 hrs by microbroth dilution method; type: functional; settings: ATCC 6538, 48 h
Staphylococcus aureus [6] = assay: Bactericidal activity against methicillin resistant Staphylococcus aureus N315 cultured in MH medium assessed as reduction in bacterial survival incubated for 48 hrs by microbroth dilution method; type: functional; settings: N315, 48 h
HEK293 [7] = assay: Cytotoxicity against human HEK293 cells assessed as cell viability upto 20 uM incubated for 72 hrs by MTT assay; type: cell-based; settings: hek293, 72 h
Proteus vulgaris [8] = assay: Antibacterial activity against Proteus vulgaris NCTC 4635 cultured in MH medium assessed as reduction in bacterial growth incubated for 48 hrs by microbroth dilution method; type: functional; settings: NCTC 4635, 48 h
Escherichia coli [9] = assay: Antibacterial activity against […] Escherichia coli ATCC 8739 assessed as reduction in bacterial growth incubated for 48 hrs in presence of 50 ug/ml […], PAbetaN by microbroth dilution method; type: functional; settings: ATCC 8739, 48 h
Serratia marcescens [10] = assay: Bactericidal activity against Serratia marcescens ATCC 12795 cultured in MH medium assessed as reduction in bacterial survival incubated for 48 hrs by microbroth dilution method; type: functional; settings: ATCC 12795, 48 h
Proteus vulgaris [11] = assay: Bactericidal activity against Proteus vulgaris NCTC 4635 cultured in MH medium assessed as reduction in bacterial survival incubated for 48 hrs by microbroth dilution method; type: functional; settings: NCTC 4635, 48 h
Enterococcus hirae [12] = assay: Antibacterial activity against Enterococcus hirae ATCC 1052 cultured in BHI medium assessed as reduction in bacterial growth incubated for 48 hrs by microbroth dilution method; type: functional; settings: ATCC 1052, 48 h
Streptococcus pneumoniae [13] = assay: Antibacterial activity against Streptococcus pneumoniae cultured in MH medium assessed as reduction in bacterial growth incubated for 48 hrs by microbroth dilution method; type: functional
HEK293 [14] = assay: Cytotoxicity against human HEK293 cells assessed as changes in cell morphology upto 20 uM incubated for 72 hrs by MTT assay; type: cell-based; settings: hek293, 72 h
[15] = Lipophilicity, log k of the compound at 100 ug/ml by micellar electrokinetic chromatography; type: physicochemical
[16] = system: Staphylococcus epidermidis; assay: Bactericidal activity against Staphylococcus epidermidis ATCC 14990 cultured in MH medium assessed as reduction in bacterial survival incubated for 48 hrs by microbroth dilution method; type: functional; settings: ATCC 14990, 48 h
Bacillus spizizenii [17] = assay: Antibacterial activity against Bacillus subtilis ATCC 6633 cultured in MH medium assessed as reduction in bacterial growth incubated for 48 hrs by microbroth dilution method; type: functional; settings: ATCC 6633, 48 h
Pseudomonas aeruginosa [18] = assay: Antibacterial activity against Pseudomonas aeruginosa ATCC 9027 cultured in MH medium assessed as reduction in bacterial growth incubated for 48 hrs by microbroth dilution method; type: functional; settings: ATCC 9027, 48 h
[19] = system: Staphylococcus epidermidis; assay: Antibacterial activity against methicillin resistant Staphylococcus epidermidis ATCC 13199 cultured in MH medium assessed as reduction in bacterial growth incubated for 48 hrs by microbroth dilution method; type: functional; settings: ATCC 13199, 48 h
Serratia marcescens [20] = assay: Antibacterial activity against Serratia marcescens ATCC 12795 cultured in MH medium assessed as reduction in bacterial growth incubated for 48 hrs by microbroth dilution method; type: functional; settings: ATCC 12795, 48 h
Escherichia coli [21] = assay: Bactericidal activity against […] Escherichia coli ATCC 8739 assessed as reduction in bacterial survival incubated for 48 hrs in presence of 50 ug/ml […], PAbetaN by microbroth dilution method; type: functional; settings: ATCC 8739, 48 h
Pseudomonas aeruginosa [22] = assay: Bactericidal activity against Pseudomonas aeruginosa ATCC 9027 cultured in MH medium assessed as reduction in bacterial survival incubated for 48 hrs by microbroth dilution method; type: functional; settings: ATCC 9027, 48 h
Bacillus spizizenii [23] = assay: Bactericidal activity against Bacillus subtilis ATCC 6633 cultured in MH medium assessed as reduction in bacterial survival incubated for 48 hrs by microbroth dilution method; type: functional; settings: ATCC 6633, 48 h
Streptococcus pneumoniae [24] = assay: Bactericidal activity against Streptococcus pneumoniae cultured in MH medium assessed as reduction in bacterial survival incubated for 48 hrs by microbroth dilution method; type: functional
[25] = system: Staphylococcus epidermidis; assay: Bactericidal activity against methicillin resistant Staphylococcus epidermidis ATCC 13199 cultured in MH medium assessed as reduction in bacterial survival incubated for 48 hrs by microbroth dilution method; type: functional; settings: ATCC 13199, 48 h
Staphylococcus aureus [26] = assay: Antibacterial activity against methicillin resistant Staphylococcus aureus 6347 cultured in MH medium assessed as reduction in bacterial growth incubated for 48 hrs by microbroth dilution method; type: functional; settings: Staphylococcus aureus, 6347, 48 h
Staphylococcus aureus [27] = assay: Bactericidal activity against Staphylococcus aureus ATCC 6538 cultured in MH medium assessed as reduction in bacterial survival incubated for 48 hrs by microbroth dilution method; type: functional; settings: ATCC 6538, 48 h
Escherichia coli [28] = assay: Antibacterial activity against Escherichia coli ATCC 8739 cultured in MH medium assessed as reduction in bacterial growth incubated for 48 hrs by microbroth dilution method; type: functional; settings: ATCC 8739, 48 h
Enterococcus hirae [29] = assay: Bactericidal activity against Enterococcus hirae ATCC 1052 cultured in BHI medium assessed as reduction in bacterial survival incubated for 48 hrs by microbroth dilution method; type: functional; settings: ATCC 1052, 48 h

| SMILES | MBC (Escherichia coli [1]) [µg/mL] | MBC (Staphylococcus aureus [2]) [µg/mL] | MIC [3] [µg/mL] | MIC (Staphylococcus aureus [4]) [µg/mL] | MIC (Staphylococcus aureus [5]) [µg/mL] | MBC (Staphylococcus aureus [6]) [µg/mL] | Activity (HEK293 [7]) | MIC (Proteus vulgaris [8]) [µg/mL] | MIC (Escherichia coli [9]) [µg/mL] | MBC (Serratia marcescens [10]) [µg/mL] | MBC (Proteus vulgaris [11]) [µg/mL] | MIC (Enterococcus hirae [12]) [µg/mL] | MIC (Streptococcus pneumoniae [13]) [µg/mL] | Activity (HEK293 [14]) | log K [15] | MBC [16] [µg/mL] | MIC (Bacillus spizizenii [17]) [µg/mL] | MIC (Pseudomonas aeruginosa [18]) [µg/mL] | MIC [19] [µg/mL] | MIC (Serratia marcescens [20]) [µg/mL] | further results |
| --- | --- | --- | --- | --- | --- | --- | --- | --- | --- | --- | --- | --- | --- | --- | --- | --- | --- | --- | --- | --- | --- |
| COc1c(N2CC[N+]3(CN4C(=N3)C(C(=O)O)=Cc3ccccc34)C(C)C2)c(F)cc2c(=O)c(C(=O)O)cn(C3CC3)c12.[Cl-] (stereo not drawn) | 0.5 | 16 | 32 | 32 | 16 | 32 | Non-Toxic | 4 | 0.125 | 64 | 4 | > 512 | 128 | Non-Toxic | -0.1255 | 32 | 32 | 128 | 4 | 64 | MBC (Escherichia coli [21]): 0.5 µg/mL; MBC (Pseudomonas aeruginosa [22]): 128 µg/mL; MBC (Bacillus spizizenii [23]): 32 µg/mL; MBC (Streptococcus pneumoniae [24]): 256 µg/mL; MBC [25]: 8 µg/mL; MIC (Staphylococcus aureus [26]): 16 µg/mL; MBC (Staphylococcus aureus [27]): 16 µg/mL; MIC (Escherichia coli [28]): 0.25 µg/mL |
| CC1=CC(C)=C(C(=O)O)C2=N[N+]3(CCN(c4cc5c(cc4F)c(=O)c(C(=O)O)cn5C4CC4)CC3)CN12.[Cl-] | 8 | 128 | 64 | 32 | 128 | 32 | Non-Toxic | 2 | 0.5 | 64 | 2 | > 512 | > 512 | Non-Toxic | -0.3214 | 64 | 8 | 128 | 4 | 64 | MBC (Escherichia coli [21]): 2 µg/mL; MBC (Pseudomonas aeruginosa [22]): 128 µg/mL; MBC (Bacillus spizizenii [23]): 8 µg/mL; MBC [25]: 8 µg/mL; MIC (Staphylococcus aureus [26]): 128 µg/mL; MBC (Staphylococcus aureus [27]): 128 µg/mL; MIC (Escherichia coli [28]): 8 µg/mL |
| CCn1cc(C(=O)O)c(=O)c2cc(F)c(N3CC[N+]4(CC3)CN3C(C)=CC(C)=C(C(=O)O)C3=N4)nc21.[Cl-] | 16 | 128 | 128 | 128 | 128 | 128 | Non-Toxic | 1 | 4 | 128 | 2 | 16 | > 512 | Non-Toxic | -0.3984 | 128 | 16 | 512 | 64 | 64 | MBC (Enterococcus hirae [29]): 32 µg/mL; MBC (Escherichia coli [21]): 16 µg/mL; MBC (Pseudomonas aeruginosa [22]): 512 µg/mL; MBC (Bacillus spizizenii [23]): 16 µg/mL; MBC [25]: 128 µg/mL; MIC (Staphylococcus aureus [26]): 128 µg/mL; MBC (Staphylococcus aureus [27]): 128 µg/mL; MIC (Escherichia coli [28]): 8 µg/mL |
